# In PubChem BioAssay AID256 (DTP/NCI, 2004):
# Values joined by “and” are separate entries in the source; they are usually repeats but may differ in a detail not shown here. Equal entries are not always repeated. Toxic doses and inconclusive results are not listed.
# System: CD2F1 mice, L1210 leukemia ip, survival T/C
# Experiment: NCI In Vivo Anticancer Drug Screen. Data for tumor model L1210 Leukemia (intraperitoneal) in CD2F1 (CDF1) mice
# Settings: higher = longer survival
# Procedure, shortened: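 Vehicle-treated tumor-bearing mice served as controls (C) for compound-treated mice (T). Reported figure is T divided by C.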
# [1] = endpoint: mean survival time, dose: 100.0 mg/kg/injection, schedule: Q04DX002 (ip), vehicle: saline with Tween-80
# [2] = endpoint: mean survival time, dose: 200.0 mg/kg/injection, schedule: Q04DX002 (ip), vehicle: saline with Tween-80
# [3] = endpoint: mean survival time, dose: 100.0 mg/kg/injection, schedule: Q01DX009 (ip), vehicle: saline with Tween-80
# [4] = endpoint: mean survival time, dose: 100.0 mg/kg/injection, schedule: Q04DX003 (ip), vehicle: saline with Tween-80
# [5] = endpoint: mean survival time, dose: 200.0 mg/kg/injection, schedule: Q01DX009 (ip), vehicle: saline with Tween-80
# [6] = endpoint: mean survival time, dose: 200.0 mg/kg/injection, schedule: Q04DX003 (ip), vehicle: saline with Tween-80
# [7] = endpoint: mean survival time, dose: 400.0 mg/kg/injection, schedule: Q01DX009 (ip), vehicle: saline with Tween-80
# [8] = endpoint: mean survival time, dose: 400.0 mg/kg/injection, schedule: Q04DX003 (ip), vehicle: saline with Tween-80
# [9] = endpoint: mean survival time, dose: 100.0 mg/kg/injection, schedule: Q01DX001 (ip), vehicle: saline with Tween-80
# [10] = endpoint: mean survival time, dose: 37.5 mg/kg/injection, schedule: Q01DX001 (ip), vehicle: saline with Tween-80
# [11] = endpoint: mean survival time, dose: 75.0 mg/kg/injection, schedule: Q01DX001 (ip), vehicle: saline with Tween-80
# [12] = endpoint: mean survival time, dose: 150.0 mg/kg/injection, schedule: Q01DX001 (ip), vehicle: saline with Tween-80
# [13] = endpoint: mean survival time, dose: 200.0 mg/kg/injection, schedule: Q01DX001 (ip), vehicle: saline with Tween-80
# [14] = endpoint: mean survival time, dose: 400.0 mg/kg/injection, schedule: Q01DX001 (ip), vehicle: saline with Tween-80
smiles,measurement,setting,value
CN(C)c1ccc(N=Nc2cccc(C(=O)[O-])c2)cc1.CN(C)c1ccc(N=Nc2cccc(C(=O)[O-])c2)cc1.NC1CCCCC1N.[Pt+4],T/C,"endpoint: median survival time, dose: 3.12 mg/kg/injection, schedule: Q04DX003 (ip), vehicle: saline with Tween-80",116 % of control and 98 % of control
same,T/C,"endpoint: median survival time, dose: 6.25 mg/kg/injection, schedule: Q04DX003 (ip), vehicle: saline with Tween-80",115 % of control and 109 % of control
same,T/C,"endpoint: median survival time, dose: 12.5 mg/kg/injection, schedule: Q04DX003 (ip), vehicle: saline with Tween-80",101 % of control
same,T/C,"endpoint: median survival time, dose: 100.0 mg/kg/injection, schedule: Q04DX003 (ip), vehicle: saline with Tween-80",375 % of control
same,T/C,"endpoint: median survival time, dose: 200.0 mg/kg/injection, schedule: Q04DX003 (ip), vehicle: saline with Tween-80",104 % of control
COc1cccc(/C=N/NC(=O)c2ccccc2N2CCCC2)c1O,T/C,"endpoint: mean survival time, dose: 12.5 mg/kg/injection, schedule: Q01DX009 (ip), vehicle: olive oil, sesame oil, peanut oil",104 % of control
same,T/C,"endpoint: mean survival time, dose: 25.0 mg/kg/injection, schedule: Q01DX009 (ip), vehicle: olive oil, sesame oil, peanut oil",96 % of control
same,T/C,"endpoint: mean survival time, dose: 50.0 mg/kg/injection, schedule: Q01DX009 (ip), vehicle: olive oil, sesame oil, peanut oil",102 % of control
same,T/C,"endpoint: mean survival time, dose: 100.0 mg/kg/injection, schedule: Q01DX009 (ip), vehicle: olive oil, sesame oil, peanut oil",94 % of control
same,T/C,"endpoint: mean survival time, dose: 200.0 mg/kg/injection, schedule: Q01DX009 (ip), vehicle: olive oil, sesame oil, peanut oil",96 % of control
C/C=C/C=C\C=C/C(O)CC(OP(=O)(O)O)C(C)(O)/C=C/C1CC=CC(=O)O1 (stereo not given),T/C,"endpoint: median survival time, dose: 0.38 mg/kg/injection, schedule: Q01DX009 (ip), vehicle: water",116 % of control
same,T/C,"endpoint: median survival time, dose: 1.5 mg/kg/injection, schedule: Q01DX009 (ip), vehicle: water",180 % of control
same,T/C,"endpoint: median survival time, dose: 3.0 mg/kg/injection, schedule: Q01DX009 (ip), vehicle: water",153 % of control and 168 % of control
same,T/C,"endpoint: median survival time, dose: 6.0 mg/kg/injection, schedule: Q01DX009 (ip), vehicle: water",120 % of control and 226 % of control
Cc1ccc(S(=O)(=O)OCC2C(COS(=O)(=O)c3ccc(C)cc3)C3CCC2C2C3C3C2C2(C)C(=O)C3(C)C(c3ccccc3)=C2c2ccccc2)cc1 (stereo not given),T/C,"endpoint: mean survival time, dose: 100.0 mg/kg/injection, schedule: Q04DX002 (ip), vehicle: other",102 % of control
same,T/C,"endpoint: mean survival time, dose: 200.0 mg/kg/injection, schedule: Q04DX002 (ip), vehicle: other",102 % of control
same,T/C,"endpoint: mean survival time, dose: 400.0 mg/kg/injection, schedule: Q04DX002 (ip), vehicle: other",111 % of control
CC1C(=O)OC2C1CCC1(C)C=CC(=O)C(C)(Cl)C21O (stereo not given),T/C,[1],100 % of control
same,T/C,[2],100 % of control
same,T/C,"endpoint: mean survival time, dose: 400.0 mg/kg/injection, schedule: Q04DX002 (ip), vehicle: saline with Tween-80",91 % of control and 87 % of control
O=C(CC(O)(C(F)(F)F)C(F)(F)F)c1cccc(Cl)c1,T/C,[3],107 % of control
same,T/C,[4],105 % of control
same,T/C,[5],103 % of control
same,T/C,[6],105 % of control
same,T/C,[7],119 % of control
same,T/C,[8],110 % of control
Cc1ccc(Nc2nc(N)nc3nc(N)c(C(N)=O)nc23)cc1C,T/C,"endpoint: mean survival time, dose: 12.5 mg/kg/injection, schedule: Q04DX002 (ip), vehicle: Klucel (hydroxypropylcellulose) (HPC)",91 % of control
same,T/C,"endpoint: mean survival time, dose: 25.0 mg/kg/injection, schedule: Q04DX002 (ip), vehicle: Klucel (hydroxypropylcellulose) (HPC)",86 % of control
same,T/C,"endpoint: mean survival time, dose: 50.0 mg/kg/injection, schedule: Q04DX002 (ip), vehicle: Klucel (hydroxypropylcellulose) (HPC)",91 % of control
O=C1OC(=O)c2c1ccc1ccc(Cl)cc21,T/C,[3],102 % of control
same,T/C,[5],96 % of control
O=C1c2ccccc2C(=O)N1CCO,T/C,[4],106 % of control
same,T/C,[6],108 % of control
same,T/C,[8],110 % of control
Cc1cccc(Nc2c3ccccc3nc3ccccc23)c1,T/C,[9],100 % of control
CC(=O)Nc1nc(CCCCc2ccccc2)cc(=O)[nH]1,T/C,[10],100 % of control
same,T/C,[11],96 % of control
same,T/C,[12],94 % of control
CCCC1=C(CCC)C(F)(F)C1(F)F,T/C,"endpoint: mean survival time, dose: 75.0 mg/kg/injection, schedule: Q01DX001 (ip), vehicle: other",98 % of control
same,T/C,"endpoint: mean survival time, dose: 150.0 mg/kg/injection, schedule: Q01DX001 (ip), vehicle: other",96 % of control
same,T/C,"endpoint: mean survival time, dose: 300.0 mg/kg/injection, schedule: Q01DX001 (ip), vehicle: other",108 % of control
O=C1C2C3C=CC(C2C(=O)N1CO)C1C2C(=O)N(CO)C(=O)C2C31 (stereo not given),T/C,"endpoint: median survival time, dose: 6.25 mg/kg/injection, schedule: Q01DX009 (ip), vehicle: water",104 % of control
same,T/C,"endpoint: median survival time, dose: 12.5 mg/kg/injection, schedule: Q01DX009 (ip), vehicle: water",107 % of control
same,T/C,"endpoint: median survival time, dose: 25.0 mg/kg/injection, schedule: Q01DX009 (ip), vehicle: water",124 % of control
same,T/C,"endpoint: median survival time, dose: 50.0 mg/kg/injection, schedule: Q01DX009 (ip), vehicle: water",190 % of control and 214 % of control
same,T/C,"endpoint: median survival time, dose: 83.3 mg/kg/injection, schedule: Q01DX009 (ip), vehicle: water",100 % of control
CCCC(C)c1ccccc1O (stereo not given),T/C,"endpoint: mean survival time, dose: 25.0 mg/kg/injection, schedule: Q01DX009 (ip), vehicle: saline with Tween-80",102 % of control
same,T/C,"endpoint: mean survival time, dose: 25.0 mg/kg/injection, schedule: Q04DX003 (ip), vehicle: saline",97 % of control
same,T/C,"endpoint: mean survival time, dose: 50.0 mg/kg/injection, schedule: Q01DX009 (ip), vehicle: saline with Tween-80",98 % of control
same,T/C,"endpoint: mean survival time, dose: 50.0 mg/kg/injection, schedule: Q04DX003 (ip), vehicle: saline",105 % of control
same,T/C,[3],92 % of control
same,T/C,"endpoint: mean survival time, dose: 100.0 mg/kg/injection, schedule: Q04DX003 (ip), vehicle: saline",94 % of control
COC(=O)/N=C(/NC(=O)OC)SC,T/C,[9],101 % of control
same,T/C,[13],103 % of control
same,T/C,[14],98 % of control
COc1ccc(CCN2C(=O)C=CC2=O)cc1OC,T/C,"endpoint: mean survival time, dose: 5.0 mg/kg/injection, schedule: Q01DX001 (ip), vehicle: saline",94 % of control
same,T/C,"endpoint: mean survival time, dose: 5.0 mg/kg/injection, schedule: Q01DX009 (ip), vehicle: saline",94 % of control
same,T/C,"endpoint: mean survival time, dose: 10.0 mg/kg/injection, schedule: Q01DX001 (ip), vehicle: saline",94 % of control
same,T/C,"endpoint: mean survival time, dose: 10.0 mg/kg/injection, schedule: Q01DX009 (ip), vehicle: saline",97 % of control
same,T/C,"endpoint: mean survival time, dose: 20.0 mg/kg/injection, schedule: Q01DX001 (ip), vehicle: saline",91 % of control
C=CCOc1ccc(C=O)cc1,T/C,"endpoint: mean survival time, dose: 100.0 mg/kg/injection, schedule: Q01DX001 (ip), vehicle: saline",102 % of control
same,T/C,"endpoint: mean survival time, dose: 200.0 mg/kg/injection, schedule: Q01DX001 (ip), vehicle: saline",102 % of control
same,T/C,"endpoint: mean survival time, dose: 400.0 mg/kg/injection, schedule: Q01DX001 (ip), vehicle: saline",97 % of control
O=C(CNC(=O)NCc1ccco1)NNC(=O)Nc1ccc(Cl)c([N+](=O)[O-])c1,T/C,[3],94 % of control
same,T/C,[5],87 % of control
same,T/C,[7],91 % of control
C/C(=N/O)c1ccc(C)cc1,T/C,[3],94 % of control
same,T/C,[4],105 % of control
same,T/C,[5],91 % of control
same,T/C,[6],107 % of control
same,T/C,[7],93 % of control
same,T/C,[8],102 % of control
CN=NNc1ccc(C(N)=O)cc1,T/C,"endpoint: mean survival time, dose: 18.75 mg/kg/injection, schedule: Q01DX009 (ip), vehicle: saline",100 % of control
same,T/C,"endpoint: mean survival time, dose: 37.5 mg/kg/injection, schedule: Q01DX009 (ip), vehicle: saline",109 % of control
same,T/C,"endpoint: mean survival time, dose: 75.0 mg/kg/injection, schedule: Q01DX009 (ip), vehicle: saline",101 % of control
same,T/C,"endpoint: mean survival time, dose: 150.0 mg/kg/injection, schedule: Q01DX009 (ip), vehicle: saline",96 % of control
same,T/C,"endpoint: mean survival time, dose: 300.0 mg/kg/injection, schedule: Q01DX009 (ip), vehicle: saline",100 % of control
O=S1(=O)CC2(OCCO2)C1Cl (stereo not given),T/C,[1],95 % of control
same,T/C,[2],91 % of control
Cc1ccc(NS(=O)(=O)c2cccc([N+](=O)[O-])c2)cc1Cl,T/C,[4],92 % of control
same,T/C,[6],97 % of control
same,T/C,[8],92 % of control
CCc1cccc[n+]1Cc1ccccc1,T/C,"endpoint: mean survival time, dose: 3.13 mg/kg/injection, schedule: Q01DX009 (ip), vehicle: saline with Tween-80",95 % of control
same,T/C,"endpoint: mean survival time, dose: 6.25 mg/kg/injection, schedule: Q01DX009 (ip), vehicle: saline with Tween-80",91 % of control
same,T/C,"endpoint: mean survival time, dose: 12.5 mg/kg/injection, schedule: Q01DX009 (ip), vehicle: saline with Tween-80",98 % of control
O=C(CBr)c1cc2ncccc2c2ccccc12,T/C,"endpoint: mean survival time, dose: 100.0 mg/kg/injection, schedule: Q01DX009 (ip), vehicle: other",101 % of control
Cc1cnc(Br)c(Br)c1,T/C,[9],101 % of control
same,T/C,[3],110 % of control
same,T/C,[13],101 % of control
same,T/C,[5],100 % of control
same,T/C,[14],103 % of control
same,T/C,[7],100 % of control
O=[N+]([O-])c1ccc(N/N=C(\COc2ccccc2)c2ccccc2)c([N+](=O)[O-])c1,T/C,[10],98 % of control
same,T/C,[11],97 % of control
same,T/C,[12],97 % of control
